Test results reported in publication PMC7719179, “Small molecule inhibition of Dynamin-dependent endocytosis targets multiple niche signals and impairs leukemia stem cells” (Nature Communications, 2020).
Values joined by “and” are separate entries in the source; they are usually repeats but may differ in a detail not shown here. Identical values can stand only once.

Experiments:
[1] = system: normal human CD34-positive HSPCs; experiment: Clonogenic assay of human CD34-positive HSPCs from healthy donors, 10 days (LC50); type: cell-based; design: Relative number of colonies (% DMSO): unit of the concentration uncertain
Description: Cultures were incubated at 37 °C in 10% CO2 for 10 days in presence of 10 μg/mL rhIL-3 (#200-03, Pepro Tech), 25 μg/mL rhSCF (#300-07, Pepro Tech), 25 μg/mL rhFLT3-L (#300-19, Pepro Tech), rhIL-6 (#200-06, Pepro Tech), 500 nM StemRegenin 1 (SR1; #1227633-49-9, Stem Cell Technologies) and 35 nM UM-171 (#72914, Stem Cell Technologies)[93],[94], then stained with acetyl-cholinesterase and counted for the number of colonies.

[2] = system: IL-3R, GM-CSFR and c-Kit endocytosis in Ba/F3-SGM3R cells; experiment: Surface expression of IL-3R, GM-CSFR and KIT in Ba/F3-SGM3R cells; type: cell-based, murine; conditions: result in words
Description: The coding sequence of murine Csf2ra (gm-csfr) and c-Kit was amplified by PCR from cDNA of bone marrow mononuclear cells of a healthy WT donor using primers mGmcsfr-FL-F and mGmcsfr-FL-R, and mKit-FL-F and mKit-FL-R, respectively (Table 3). The PCR product was cloned into the XhoI and EcoRI sites of pMIG-R1, which was kindly given by Pear et al.[82],[83]. Ba/F3 cells were infected with pMIG-R1/Gmcsfr retroviral supernatants produced in 293T cells, transduced cells were sorted with a BD Influx (BD Australia) and selected by culture in medium supplemented with 25 ng/mL rmGm-csf (#305-03, Pepro Tech, Rocky Hill NJ, USA) for 7 days. Finally, Ba/F3 cells stably expressing Gm-csfr were infected with pMIG-R1/Kit retroviral supernatants produced in 293T cells to generate Ba/F3-SMG3R cells, which were sorted with a BD Influx and maintained in medium supplemented with 5 ng/mL rmIL-3 (#213-13, Pepro Tech, Rocky Hill NJ, USA).
Mean fluorescence intensity (MFI) ± SD of n=3 biological replicates are shown (*P<0.05, ** P<0.01, ***P<0.001 compared to vehicle) . Basal levels of pStat5 and pErk were measured in unstimulated BaF3-SGM3 R cells (white bar). c, Correlative studies between the relative levels of pStat5 (left) or pErk (right) and the relative survival of BaF3-SGM3R cells treated Dynole 34-2 . […]
in BaF3-SGM3R cells treated with Dynole 34-2 . […] Baseline measured in unstimulated BaF3-SGM3 R cells

[3] = system: pSTAT5 and HES1 in ETP12 and ALL8 patient-derived cells; experiment: pSTAT5 and HES1 in ETP12 and ALL8 cells harvested from treated recipients; type: in vivo, human
Description: Phosphoflow analysis was performed as previously described. Briefly, 2 × 10^6 cells stained for surface markers were subsequently resuspended into PBS 1× + 4% v/v paraformaldehyde and incubated for 10 min at 4 °C for fixation. Fixed cells were washed twice using PBS 1×, then resuspended in pre-chilled at −20 °C Perm Buffer III (BD Pharmingen) and incubated 30 min at 4 °C for permeabilization. Cells were washed twice using PBS 1× and incubated overnight at 4 °C in PBS 1× + 2% v/v fetal calf serum (FCS) with Cell Signalling purified antibodies (Genesearch Pty Ltd, Arundel QLD, Australia) against pSTAT5 (Tyr694; #9359), phospho-p38 MAPK (Thr180/Tyr182; #4511), phospho-p44/42 (Erk1/2; #9102), phospho-S6 (Ser235/236; #4856) and phospho-Akt (Ser473; #9271) or isotype control. For intracellular HES1 detection, cells stained for surface markers were subsequently fixed and permeabilized using the BD Cytofix/Cytoperm^TM Kit and incubated overnight at 4 °C in PBS 1× + 2% v/v FCS with a purified antibody against HES1 (D6PU; #11988, Cell Signalling) or isotype control. After staining with primary antibodies for phosphoflow or intracellular detection, cells were incubated in permeabilization buffer with donkey Alexa Fluor 488-conjugated anti-rabbit secondary antibody (A-21206, lot #1910751, Molecular Probes, Invitrogen) or goat Alexa Fluor 546-conjugated anti-rabbit secondary antibody (A-11035, lot #1904467, Molecular Probes, Invitrogen) for 1 h on ice, and washed twice in PBS 1×. Fluorescence-activated cell sorting (FACS) analysis was performed using LSRII and LSR Fortessa cytometers, following the gating strategies described in Supplementary Fig. 11. Cell sorting was performed with a FACSAria or BD Influx.
Patient-derived xenograft models were established as previously described[97],[98]. […] For transplantation assays, 10^6 splenocytes harvested from successfully engrafted primary human ETP-ALL or T-ALL xenografts were injected into nonobese diabetic/severe combined immunodeficient (NOD.Cg-Prkdc^scid, also termed NOD/SCID) or NOD/SCID/Il2rg^tm1wjl/SzJ (NSG) mice[99]. Moreover, 1.5 × 10^6 cells splenocytes harvested from successfully engrafted patient-derived AML xenografts were injected into nonobese diabetic/severe immunodeficient (NOD.Cg-Rag1^tm1MomIl2rg^tm1wjl/SzJ, also termed NRG) mice expressing human IL-3, human GM-CSF and human SCF from the SGM3 triple transgene (NRGS)[100]. Engraftment into recipients was monitored by FACS analysis of peripheral blood as previously described. […] The in vivo efficacy of Dynole 34-2 was assessed 24 h after the last injection by FACS analysis and immunohistochemistry as described in Supplementary Methods. […]

CCCCCCCCNC(=O)C(C#N)=Cc1cn(CCCN(C)C)c2ccccc12 [Dynole 34-2, 2-Cyano-N-octyl-3-(1-(3-dimethylaminopropyl)-1H-indol-3-yl)-acrylamide]
Relative number of colonies (% DMSO) ([1]; CD34_1003, dose 0.04 (unit uncertain)): 99.5 % DMSO and 94.6 % DMSO | Relative number of colonies (% DMSO) ([1]; CD34_1003, dose 0.2 (unit uncertain)): 88.8 % DMSO and 76.1 % DMSO | Relative number of colonies (% DMSO) ([1]; CD34_1003, dose 1 (unit uncertain)): 82.9 % DMSO and 71.2 % DMSO | Relative number of colonies (% DMSO) ([1]; CD34_1003, dose 5 (unit uncertain)): 48.8 % DMSO and 56.6 % DMSO | Relative number of colonies (% DMSO) ([1]; CD34_1003, dose 25 (unit uncertain)): 0.0 % DMSO | Relative number of colonies (% DMSO) ([1]; CD34_1602, dose 0.04 (unit uncertain)): 116.1 % DMSO and 109.5 % DMSO | Relative number of colonies (% DMSO) ([1]; CD34_1602, dose 0.2 (unit uncertain)): 118.9 % DMSO and 100.0 % DMSO | Relative number of colonies (% DMSO) ([1]; CD34_1602, dose 1 (unit uncertain)): 106.3 % DMSO and 87.8 % DMSO | Relative number of colonies (% DMSO) ([1]; CD34_1602, dose 5 (unit uncertain)): 89.5 % DMSO and 73.0 % DMSO | Relative number of colonies (% DMSO) ([1]; CD34_1602, dose 25 (unit uncertain)): 0.0 % DMSO | Relative number of colonies (% DMSO) ([1]; CD34_2104, dose 0.04 (unit uncertain)): 102.6 % DMSO | Relative number of colonies (% DMSO) ([1]; CD34_2104, dose 0.2 (unit uncertain)): 104.6 % DMSO and 97.4 % DMSO | Relative number of colonies (% DMSO) ([1]; CD34_2104, dose 1 (unit uncertain)): 68.7 % DMSO and 76.9 % DMSO | Relative number of colonies (% DMSO) ([1]; CD34_2104, dose 25 (unit uncertain)): 0.0 % DMSO | endocytosis of c-Kit, GM-CSFR and IL-3R [2]: impaired endocytosis | HES1 (MFI) in human CD45+ cells ([3]; PDX ALL8): 1836 MFI and 2160 MFI and 2094 MFI | pSTAT5 (MFI) in human CD45+ cells ([3]; PDX ALL8): 2379 MFI and 2645 MFI and 2581 MFI | HES1 (MFI) in human CD45+ cells ([3]; PDX ETP12): 8443 MFI and 7622 MFI and 8597 MFI and 6696 MFI and 10495 MFI and 10443 MFI | pSTAT5 (MFI) in human CD45+ cells ([3]; PDX ETP12): 4191 MFI and 3709 MFI and 3790 MFI
